{
  "source": "ChEMBL document CHEMBL1133152",
  "about": "“Design and synthesis of mimics of S-adenosyl-L-homocysteine as potential inhibitors of erythromycin methyltransferases” (Bioorg Med Chem Lett, 2000)",
  "key": {"[1]": {"molecular_target": "T1, rRNA adenine N-6-methyltransferase (Streptococcus pneumoniae, UniProt P21236)", "T1 sequence (P21236 whole entry)": "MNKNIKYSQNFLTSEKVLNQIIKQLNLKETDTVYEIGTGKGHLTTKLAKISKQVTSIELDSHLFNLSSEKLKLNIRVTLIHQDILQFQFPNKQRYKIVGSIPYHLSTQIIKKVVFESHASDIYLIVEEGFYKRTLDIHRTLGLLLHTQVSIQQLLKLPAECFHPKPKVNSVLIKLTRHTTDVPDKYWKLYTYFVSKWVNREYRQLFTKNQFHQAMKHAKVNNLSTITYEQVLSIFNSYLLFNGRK", "assay": "Inhibition of ErmAM methylase"}, "[2]": {"assay": "The compound was tested for its ability to inhibit ErmC methylase at 100 uM"}, "[3]": {"assay": "The compound was tested for its ability to inhibit ErmC methylase"}, "[4]": {"assay": "The compound was tested for its ability to inhibit ErmAM methylase at 100 uM"}, "[5]": {"assay": "The compound was tested for its binding ability to inhibit ErmAM methylase"}, "[6]": {"assay": "The compound was tested for its ability to inhibit ErmC methylase; Range 50-100"}},
  "data": [
    {"compound": "Nc1nc(CC2O[C@H](CSCc3ccccc3)[C@@H](O)[C@H]2O)nc(NC2Cc3ccccc3C2)n1", "note": "(stereo not given in full)", "values": [
      {"measurement": "Ki", "setting": "[1]", "value": "> 100", "unit": "µM"},
      {"measurement": "inhibition", "setting": "[2]", "value": 10, "unit": "%"},
      {"measurement": "Ki", "setting": "[3]", "value": "> 100", "unit": "µM"},
      {"measurement": "inhibition", "setting": "[4]", "value": 10, "unit": "%"}
    ]},
    {"compound": "Nc1nc(CC2O[C@H](CSc3ccccc3)[C@@H](O)[C@H]2O)nc(NC2Cc3ccccc3C2)n1", "note": "(stereo not given in full)", "values": [
      {"measurement": "Ki", "setting": "[1]", "value": "> 100", "unit": "µM"},
      {"measurement": "inhibition", "setting": "[2]", "value": 28, "unit": "%"},
      {"measurement": "Ki", "setting": "[3]", "value": "> 100", "unit": "µM"},
      {"measurement": "inhibition", "setting": "[4]", "value": 3.4, "unit": "%"}
    ]},
    {"compound": "Nc1nc(C[C@@H]2O[C@H](COC/C=C/c3ccccc3)[C@@H](O)[C@H]2O)nc(NC2Cc3ccccc3C2)n1", "values": [
      {"measurement": "Ki", "setting": "[1]", "value": "~90", "unit": "µM"},
      {"measurement": "Ki", "setting": "[3]", "value": "~60", "unit": "µM"}
    ]},
    {"compound": "Nc1nc(NC2Cc3ccccc3C2)nc(N2CCCCC2)n1", "values": [
      {"measurement": "Ki", "setting": "[5]", "value": 8, "unit": "µM"}
    ]},
    {"compound": "Nc1nc(NC2Cc3ccccc3C2)nc([C@H]2C[C@@H](O)[C@H](O)[C@H](OCc3ccccc3)C2)n1", "values": [
      {"measurement": "Ki", "setting": "[1]", "value": "> 100", "unit": "µM"},
      {"measurement": "inhibition", "setting": "[2]", "value": 17.7, "unit": "%"},
      {"measurement": "Ki", "setting": "[3]", "value": "> 100", "unit": "µM"},
      {"measurement": "inhibition", "setting": "[4]", "value": 9.9, "unit": "%"}
    ]},
    {"compound": "Nc1nc(CC[C@@H]2O[C@H](COCc3ccc(Br)cc3)[C@@H](O)[C@H]2O)nc(NC2Cc3ccccc3C2)n1", "values": [
      {"measurement": "Ki", "setting": "[1]", "value": "~50", "unit": "µM"},
      {"measurement": "inhibition", "setting": "[2]", "value": 37.5, "unit": "%"},
      {"measurement": "Ki", "setting": "[6]", "value": 100, "unit": "µM"},
      {"measurement": "inhibition", "setting": "[4]", "value": 55, "unit": "%"}
    ]},
    {"compound": "Cc1ccc(COC[C@H]2O[C@@H](Cc3nc(N)nc(NC4Cc5ccccc5C4)n3)[C@H](O)[C@@H]2O)cc1", "values": [
      {"measurement": "Ki", "setting": "[1]", "value": "> 100", "unit": "µM"},
      {"measurement": "inhibition", "setting": "[2]", "value": 0, "unit": "%"},
      {"measurement": "Ki", "setting": "[3]", "value": "> 100", "unit": "µM"},
      {"measurement": "inhibition", "setting": "[4]", "value": 15, "unit": "%"}
    ]},
    {"compound": "Nc1nc(NC2Cc3ccccc3C2)cc(-c2ccc(NCCCc3ccccc3O)cc2)n1", "values": [
      {"measurement": "Ki", "setting": "[5]", "value": 10, "unit": "µM"}
    ]},
    {"compound": "Nc1nc(C[C@@H]2O[C@H](COCc3ccc(Br)cc3)[C@@H](O)[C@H]2O)nc(NC2Cc3ccccc3C2)n1", "values": [
      {"measurement": "Ki", "setting": "[1]", "value": "~75", "unit": "µM"},
      {"measurement": "Ki", "setting": "[3]", "value": "~40", "unit": "µM"}
    ]},
    {"compound": "Nc1nc(CC2O[C@H](CSCCc3ccccc3)[C@@H](O)[C@H]2O)nc(NC2Cc3ccccc3C2)n1", "note": "(stereo not given in full)", "values": [
      {"measurement": "Ki", "setting": "[1]", "value": "> 100", "unit": "µM"},
      {"measurement": "inhibition", "setting": "[2]", "value": 39.9, "unit": "%"},
      {"measurement": "Ki", "setting": "[6]", "value": 100, "unit": "µM"},
      {"measurement": "inhibition", "setting": "[4]", "value": 18, "unit": "%"}
    ]},
    {"compound": "Nc1nc(CC2O[C@H](COCc3ccccc3)[C@@H](O)[C@H]2O)nc(NC2Cc3ccccc3C2)n1", "note": "(stereo not given in full)", "values": [
      {"measurement": "Ki", "setting": "[1]", "value": "> 100", "unit": "µM"},
      {"measurement": "inhibition", "setting": "[2]", "value": 5.5, "unit": "%"},
      {"measurement": "inhibition", "setting": "[4]", "value": 16.9, "unit": "%"}
    ]},
    {"compound": "Nc1nc(CC2O[C@H](CSCc3ccc(Cl)cc3)[C@@H](O)[C@H]2O)nc(NC2Cc3ccccc3C2)n1", "note": "(stereo not given in full)", "values": [
      {"measurement": "Ki", "setting": "[1]", "value": "~55", "unit": "µM"},
      {"measurement": "Ki", "setting": "[3]", "value": "~80", "unit": "µM"}
    ]}
  ]
}
